This test deals with T1, Amyloid-β (Aβ1-42) aggregates (Homo sapiens, UniProt P05067).
T1 construct: gene APP; Aβ1-42 (aggregates)
Put plainly: fluorescence enhancement titration (supported by far-UV CD and van't Hoff analysis). Type of test: binding.

The structures appear in SMILES notation.

T1 sequence (P05067 672-713): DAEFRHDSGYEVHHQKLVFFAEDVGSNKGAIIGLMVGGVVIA

For `O=C(O)CN1C(=O)/C(=C/c2ccc(N(c3ccccc3)c3ccccc3)cc2)SC1=S` [mRA, triphenylamine rhodamine-3-acetic acid], the Kd (commonly the constant that tells how readily two partners part at equilibrium) was 341 ± 17 nM.

Values taken from article PMC12408501, “A novel fluorescent probe, triphenylamine rhodamine-3-acetic acid (mRA) for the detection of Amyloid-β aggregates in Alzheimer's disease” (Frontiers in Neuroscience, 2025).
